Tests used:
Type in all cases: cell-based
Escherichia coli = test: Growth of the isolate in antibiotic mediums, sample 5; conditions: microorganism isolated in sample 5 (Escherichia coli); grown in antibiotic medium
From the text: (§1) Each microorganism was growth in at least two antibiotic mediums, in which the improved method predicted resistance, and at least two antibiotic mediums in which the improved method predicted susceptibility, in order to corroborate the obtained results.

Klebsiella pneumoniae = test: Growth of the isolate in antibiotic mediums, sample 1; conditions: microorganism isolated in sample 1 (Klebsiella pneumoniae); grown in antibiotic medium
From the text: as §1

Enterococcus faecalis = test: Growth of the isolate in antibiotic mediums, sample 3; conditions: microorganism isolated in sample 3 (Enterococcus faecalis); grown in antibiotic medium
From the text: as §1

Staphylococcus aureus = test: Growth of the isolate in antibiotic mediums, sample 2; conditions: microorganism isolated in sample 2 (Staphylococcus aureus); grown in antibiotic medium
From the text: as §1

[1] = test system: Staphylococcus epidermidis; test: Growth of the isolate in antibiotic mediums, sample 4; conditions: microorganism isolated in sample 4 (Staphylococcus epidermidis); grown in antibiotic medium
From the text: as §1

SMILES	Result (Escherichia coli)	Result (Klebsiella pneumoniae)	Result (Enterococcus faecalis)	Result (Staphylococcus aureus)	Result [1]
NCC[C@H](O)C(=O)N[C@@H]1C[C@H](N)[C@@H](O[C@H]2O[C@H](CN)[C@@H](O)[C@H](O)[C@H]2O)[C@H](O)[C@H]1O[C@H]1O[C@H](CO)[C@@H](O)[C@H](N)[C@H]1O [Amikacin]	Not resistant	Not resistant	Not resistant	Not resistant	Not resistant
CO/N=C(\C(=O)N[C@@H]1C(=O)N2C(C(=O)O)=C(CSc3nc(=O)c(=O)[nH]n3C)CS[C@H]12)c1csc(N)n1 [Ceftriaxone]	Resistant	Resistant			Resistant
O=C(O)c1cn(C2CC2)c2cc(N3CCNCC3)c(F)cc2c1=O [Ciprofloxacin]	Resistant	Resistant	Not resistant	Resistant	Resistant
COc1cccc(OC)c1C(=O)N[C@@H]1C(=O)N2[C@@H]1SC(C)(C)[C@@H]2C(=O)O [Methicillin]	Not resistant	Not resistant		Not resistant	Not resistant
CC[C@H]1OC(=O)[C@H](C)[C@@H](O[C@H]2C[C@@](C)(OC)[C@@H](O)[C@H](C)O2)[C@H](C)[C@@H](O[C@@H]2O[C@H](C)C[C@H](N(C)C)[C@H]2O)[C@](C)(O)C[C@@H](C)CN(C)[C@H](C)[C@@H](O)[C@]1(C)O [azithromycin]				Resistant	

Reference: US20250069697A1, “AN IMPROVED METHOD TO IDENTIFY NUCLEIC ACID SEQUENCES WITHIN A SET OF SEQUENCES OBTAINED BY A SEQUENCER AND A SYSTEM” (priority 2022, published 2025)
